Reference: publication PMC3914206

Legend:
Format in all cases: binding
Conditions in all cases: Compound Concentration 10 µM
panel of 442 kinases [1] = molecular target: T1, panel of 442 kinases (Homo sapiens, UniProt Q09013)
T1 construct: purchased KINOMEscan
T1 sequence (Q09013 1-629): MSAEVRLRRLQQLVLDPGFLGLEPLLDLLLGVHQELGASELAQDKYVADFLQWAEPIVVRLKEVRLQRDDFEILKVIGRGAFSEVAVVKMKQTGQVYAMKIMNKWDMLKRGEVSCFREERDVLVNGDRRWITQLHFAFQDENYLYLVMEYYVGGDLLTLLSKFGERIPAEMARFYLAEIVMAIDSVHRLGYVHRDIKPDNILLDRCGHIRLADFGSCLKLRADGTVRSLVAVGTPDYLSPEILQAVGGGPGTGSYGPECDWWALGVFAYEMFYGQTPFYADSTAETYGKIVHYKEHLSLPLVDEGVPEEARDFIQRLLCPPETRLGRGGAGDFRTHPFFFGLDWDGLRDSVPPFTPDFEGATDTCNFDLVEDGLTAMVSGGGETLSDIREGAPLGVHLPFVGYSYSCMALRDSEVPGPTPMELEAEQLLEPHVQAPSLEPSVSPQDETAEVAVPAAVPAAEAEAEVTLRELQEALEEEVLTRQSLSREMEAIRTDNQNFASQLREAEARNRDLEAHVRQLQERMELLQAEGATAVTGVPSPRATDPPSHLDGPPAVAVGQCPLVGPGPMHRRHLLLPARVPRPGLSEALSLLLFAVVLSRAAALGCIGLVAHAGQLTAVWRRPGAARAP
From the text: (§1) We assessed the selectivity of members of this scaffold using the KINOMEscan methodology across a near comprehensive panel of 442 kinases [[18,27]].

panel of 442 kinases [2] = molecular target: T2, panel of 442 kinases (Homo sapiens, UniProt Q16513)
T2 construct: purchased KINOMEscan
From the text: as §1

panel of 442 kinases [3] = molecular target: T3, panel of 442 kinases (Homo sapiens, UniProt Q9HBH9)
T3 construct: purchased KINOMEscan
From the text: as §1

T2 sequence (Q16513 whole entry): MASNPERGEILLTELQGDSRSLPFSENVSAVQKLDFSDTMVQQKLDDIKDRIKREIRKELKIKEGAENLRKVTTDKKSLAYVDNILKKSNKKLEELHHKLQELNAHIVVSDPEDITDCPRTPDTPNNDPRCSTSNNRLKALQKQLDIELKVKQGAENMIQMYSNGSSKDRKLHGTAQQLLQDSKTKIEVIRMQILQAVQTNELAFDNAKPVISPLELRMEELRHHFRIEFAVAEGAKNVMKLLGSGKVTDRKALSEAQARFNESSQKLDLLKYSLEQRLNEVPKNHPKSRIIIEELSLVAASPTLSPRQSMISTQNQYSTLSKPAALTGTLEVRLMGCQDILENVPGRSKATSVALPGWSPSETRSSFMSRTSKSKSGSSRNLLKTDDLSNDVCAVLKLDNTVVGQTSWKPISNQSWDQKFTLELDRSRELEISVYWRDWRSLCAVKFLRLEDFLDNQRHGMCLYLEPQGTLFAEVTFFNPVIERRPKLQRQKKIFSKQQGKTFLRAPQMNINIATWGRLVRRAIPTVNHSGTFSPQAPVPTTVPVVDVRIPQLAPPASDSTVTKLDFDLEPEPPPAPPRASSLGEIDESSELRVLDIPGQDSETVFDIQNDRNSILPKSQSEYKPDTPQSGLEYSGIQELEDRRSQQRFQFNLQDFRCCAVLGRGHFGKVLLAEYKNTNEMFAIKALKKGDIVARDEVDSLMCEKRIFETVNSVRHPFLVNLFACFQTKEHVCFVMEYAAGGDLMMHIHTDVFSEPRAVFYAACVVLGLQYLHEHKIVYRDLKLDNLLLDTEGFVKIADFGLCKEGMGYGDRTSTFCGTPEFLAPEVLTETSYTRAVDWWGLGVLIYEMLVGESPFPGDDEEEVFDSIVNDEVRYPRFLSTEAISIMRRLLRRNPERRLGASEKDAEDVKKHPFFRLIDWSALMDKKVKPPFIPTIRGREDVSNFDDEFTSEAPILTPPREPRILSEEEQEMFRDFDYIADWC
T3 sequence (Q9HBH9 whole entry): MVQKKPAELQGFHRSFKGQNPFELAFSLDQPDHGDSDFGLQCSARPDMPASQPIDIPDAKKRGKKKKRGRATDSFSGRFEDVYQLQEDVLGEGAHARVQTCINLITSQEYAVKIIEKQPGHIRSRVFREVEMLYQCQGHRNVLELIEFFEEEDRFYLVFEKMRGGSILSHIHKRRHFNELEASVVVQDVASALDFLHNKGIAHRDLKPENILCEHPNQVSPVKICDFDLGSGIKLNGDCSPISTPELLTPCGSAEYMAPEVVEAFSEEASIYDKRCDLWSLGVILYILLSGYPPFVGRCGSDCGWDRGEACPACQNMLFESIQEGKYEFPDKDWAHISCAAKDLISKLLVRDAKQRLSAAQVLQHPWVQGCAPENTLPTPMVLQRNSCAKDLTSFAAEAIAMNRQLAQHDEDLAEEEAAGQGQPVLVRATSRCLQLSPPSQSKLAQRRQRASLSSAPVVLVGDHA

Structure (SMILES)	KINOMEscan: DMPK (panel of 442 kinases [1])	KINOMEscan: PKN2 (panel of 442 kinases [2])	KINOMEscan: MKNK2 (panel of 442 kinases [3])
COc1cc(C(=O)N2CCC(N3CCN(C)CC3)CC2)ccc1Nc1ncc2c(n1)N(C1CCCC1)c1ccccc1C(=O)N2C [Compound 25, 11-cyclopentyl-2-((2-methoxy-4-(4-(4-methylpiperazin-1-yl)piperidine-1-carbonyl)phenyl)amino)-5-methyl-5H-benzo[e]pyrimido[5,4-b][1,4]diazepin-6(11H)-one]	96	100	100
CCOc1cc(C(=O)N2CCC(N3CCN(C)CC3)CC2)ccc1Nc1ncc2c(n1)N(C1CCCC1)c1ccccc1C(=O)N2C [Compound 26]	100	100	100
COc1cc(C(=O)N2CCC(N3CCN(C)CC3)CC2)ccc1Nc1ncc2c(n1)N1CCc3cccc(c31)C(=O)N2C [Compound 24]	85	82	8.6
COc1cc(C(=O)N2CCC(N3CCN(C)CC3)CC2)ccc1Nc1ncc2c(n1)N(C)c1ccccc1C(=O)N2C [15 (LRRK2-IN-1)]	100	95	1.2
